Measurements as given in ChEMBL document CHEMBL1149708, “Novel sulfonamides having dual dopamine D2 and D3 receptor affinity show in vivo antipsychotic efficacy with beneficial cognitive and EPS profile” (Bioorg Med Chem Lett, 2007).
Active and inactive are the calls of the source. The rule behind the calls is not given here.

Experiments:
Rattus norvegicus [1] = test: Antipsychotic activity in orally dosed Wistar rat assessed as inhibition of conditioned avoidance response after 1 hr; format: functional; conditions: po
D(2) dopamine receptor = D(2) dopamine receptor (Rattus norvegicus, UniProt P61169); test: Displacement of [3H]spiperone from dopamine D2 receptor in rat striatal membranes; format: cell membranes, Membrane
D(3) dopamine receptor = D(3) dopamine receptor (Rattus norvegicus, UniProt P19020); test: Displacement of [3H]spiperone from rat dopamine D3 receptor expressed in Sf9 cells
[2] = Bioavailability in rat at 10 mg/kg; format: ADME, organism-based; conditions: in vivo
Rattus norvegicus [3] = test: Catalepsy in orally dosed Wistar rat after 30 mins; format: functional
[4] = target: D(2) dopamine receptor (Homo sapiens) (UniProt P14416); test: Antagonistic activity at human D2 expressed in CHO cells by [35S]GTP-gamma-S binding assay; format: functional, cell-based
[5] = target: D(3) dopamine receptor (Homo sapiens) (UniProt P35462); test: Antagonistic activity at human D3 receptor expressed in CHO cells by [35S]GTP-gamma-S binding assay; format: functional, cell-based
[6] = Cmax in orally dosed rat brain; format: ADME, organism-based; parameters: route oral; conditions: po
Mus musculus = test: Antipsychotic activity in orally dosed CD1 mice assessed as inhibition of […] induced climbing behavior; conditions: CD1, po
[7] = Tmax in orally dosed rat brain; format: ADME, organism-based; conditions: po

D(2) dopamine receptor, sequence (P61169 whole entry): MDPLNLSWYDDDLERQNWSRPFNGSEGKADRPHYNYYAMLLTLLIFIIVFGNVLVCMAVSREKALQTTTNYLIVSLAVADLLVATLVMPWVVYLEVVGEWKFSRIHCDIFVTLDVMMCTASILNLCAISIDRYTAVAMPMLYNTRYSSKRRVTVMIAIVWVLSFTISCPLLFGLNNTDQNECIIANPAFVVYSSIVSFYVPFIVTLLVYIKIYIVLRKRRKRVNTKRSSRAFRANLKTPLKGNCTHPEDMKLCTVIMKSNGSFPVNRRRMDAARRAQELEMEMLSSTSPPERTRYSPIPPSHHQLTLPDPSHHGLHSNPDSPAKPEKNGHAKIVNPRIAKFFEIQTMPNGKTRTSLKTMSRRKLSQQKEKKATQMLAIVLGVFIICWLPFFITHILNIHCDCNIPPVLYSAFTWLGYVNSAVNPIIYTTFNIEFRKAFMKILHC
D(3) dopamine receptor, sequence (P19020 whole entry): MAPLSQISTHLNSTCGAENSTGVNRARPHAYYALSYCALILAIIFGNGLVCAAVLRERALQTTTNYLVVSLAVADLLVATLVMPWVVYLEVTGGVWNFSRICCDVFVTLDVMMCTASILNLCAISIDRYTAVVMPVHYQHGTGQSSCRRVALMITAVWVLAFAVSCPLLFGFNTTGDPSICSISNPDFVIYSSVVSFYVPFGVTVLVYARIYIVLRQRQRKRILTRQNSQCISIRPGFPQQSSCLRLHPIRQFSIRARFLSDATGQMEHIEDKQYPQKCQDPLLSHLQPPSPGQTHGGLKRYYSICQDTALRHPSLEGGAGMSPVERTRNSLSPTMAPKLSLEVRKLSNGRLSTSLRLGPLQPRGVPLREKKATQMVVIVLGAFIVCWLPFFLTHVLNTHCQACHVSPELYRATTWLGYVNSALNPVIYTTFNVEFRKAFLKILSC
D(2) dopamine receptor (Homo sapiens), sequence (P14416 whole entry): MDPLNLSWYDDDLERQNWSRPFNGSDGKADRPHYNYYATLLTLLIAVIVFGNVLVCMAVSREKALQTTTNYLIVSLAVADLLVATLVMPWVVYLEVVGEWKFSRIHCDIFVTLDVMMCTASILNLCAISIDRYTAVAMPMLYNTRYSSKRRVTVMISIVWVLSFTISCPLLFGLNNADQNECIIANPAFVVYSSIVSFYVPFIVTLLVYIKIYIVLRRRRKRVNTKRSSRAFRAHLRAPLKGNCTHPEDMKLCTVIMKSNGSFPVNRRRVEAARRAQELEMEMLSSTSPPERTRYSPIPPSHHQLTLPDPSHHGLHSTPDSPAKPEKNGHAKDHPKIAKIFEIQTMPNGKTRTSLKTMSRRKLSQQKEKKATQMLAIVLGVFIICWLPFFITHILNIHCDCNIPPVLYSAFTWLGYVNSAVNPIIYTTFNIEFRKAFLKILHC
D(3) dopamine receptor (Homo sapiens), sequence (P35462 whole entry): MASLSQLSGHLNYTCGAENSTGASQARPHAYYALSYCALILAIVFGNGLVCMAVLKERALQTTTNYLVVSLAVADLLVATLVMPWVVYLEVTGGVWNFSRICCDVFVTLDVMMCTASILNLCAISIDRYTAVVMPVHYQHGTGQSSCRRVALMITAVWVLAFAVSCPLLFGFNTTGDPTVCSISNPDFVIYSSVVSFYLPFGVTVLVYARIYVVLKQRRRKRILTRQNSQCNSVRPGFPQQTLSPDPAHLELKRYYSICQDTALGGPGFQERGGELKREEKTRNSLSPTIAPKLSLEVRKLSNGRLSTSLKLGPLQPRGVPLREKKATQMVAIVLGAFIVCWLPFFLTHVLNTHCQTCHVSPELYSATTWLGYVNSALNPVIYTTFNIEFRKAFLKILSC

SMILES	IC50 (D(2) dopamine receptor) [nM]	IC50 (D(3) dopamine receptor) [nM]	further results
O=C1CCc2ccc(OCCCCN3CCN(c4cccc(Cl)c4Cl)CC3)cc2N1 [ARIPIPRAZOLE]			ED50 (Rattus norvegicus [1]): 17.9 mg/kg
Cc1ccc(S(=O)(=O)N[C@H]2CC[C@H](CCN3CCN(c4cc(C#N)cc(C(F)(F)F)c4)CC3)CC2)cn1	39	4.2	
N#Cc1cc(N2CCN(CC[C@H]3CC[C@H](NS(=O)(=O)c4ccc5c(c4)CCC(=O)N5)CC3)CC2)cc(C(F)(F)F)c1	30	0.7	
O=C1COc2ccc(S(=O)(=O)N[C@H]3CC[C@H](CCN4CCC(Oc5cccc(C(F)(F)F)c5)CC4)CC3)cc2N1	5.3	1	
N#Cc1cc(N2CCN(CC[C@H]3CC[C@H](NS(=O)(=O)c4ccc(Br)cc4)CC3)CC2)cc(C(F)(F)F)c1	26	3.3	
O=S(=O)(N[C@H]1CC[C@H](CCN2CCC(Cc3cccc(C(F)(F)F)c3)CC2)CC1)c1ccc(-n2cccn2)cc1	4.3	0.5	
N#Cc1cc(N2CCN(CC[C@H]3CC[C@H](NS(=O)(=O)c4cccnc4)CC3)CC2)cc(C(F)(F)F)c1	24	0.4	bioavailability [2]: 55%; MED (Rattus norvegicus [3]): >200 mg/kg; Activity [4]: Active; Activity [5]: Active; Cmax [6]: 921 ng/mL; ED50 (Mus musculus): 22 mg/kg; Tmax [7]: 1 h; ED50 (Rattus norvegicus [1]): 11.6 mg/kg
N#Cc1cc(N2CCN(CC[C@H]3CC[C@H](NS(=O)(=O)c4cccc(C#N)c4)CC3)CC2)cc(C(F)(F)F)c1	23	5.8	
O=S(=O)(N[C@H]1CC[C@H](CCN2CCC(Nc3cc(Cl)ccc3Cl)CC2)CC1)c1ccc(F)cc1	9	2	
COc1ccc(S(=O)(=O)N[C@H]2CC[C@H](CCN3CCN(c4cccc(C#N)c4)CC3)CC2)cc1OC	57	0.7	
O=S(=O)(N[C@H]1CC[C@H](CCN2CCC(Cc3cccc(C(F)(F)F)c3)CC2)CC1)c1ccc(Cl)cc1	41	3.8	
CC(=O)Nc1ccc(S(=O)(=O)N[C@H]2CC[C@H](CCN3CCN(c4cc(C#N)cc(C(F)(F)F)c4)CC3)CC2)cc1	39	0.9	
O=S(=O)(N[C@H]1CC[C@H](CCN2CCN(c3cccc(Cl)c3Cl)CC2)CC1)c1cccnc1	4	0.2	
O=S(=O)(N[C@H]1CC[C@H](CCN2CCC(Cc3cccc(C(F)(F)F)c3)CC2)CC1)c1cc2ccccc2s1	91	2.6	
Cc1cc2c(s1)Nc1ccccc1N=C2N1CCN(C)CC1 [OLANZAPINE]			ED50 (Rattus norvegicus [1]): 3.9 mg/kg
COc1ccc(S(=O)(=O)N[C@H]2CC[C@H](CCN3CCN(c4ccc(Br)cc4OC)CC3)CC2)cc1	28	0.5	
